Biological target: T1, E. coli transketolase (TK), 6M variant scaffold (Escherichia coli, UniProt P27302, H100L/H192P/A282P/I365L/D469T/G506A/R520Q, form not given)
T1 construct: gene tktA; full-length, C-terminal His6 tag, expressed in E. coli from lab plasmid (pQR791 / pQR729), Ni-NTA purified; holo-TK with ThDP and Mg2+; non-natural residue by amber suppression in TK-5C
Experiment: initial-rate kinetics by RP-HPLC, Michaelis-Menten fit
Type: biochemical
Conditions: TK-5C; residue 385 is non-natural p-cyano-L-phenylalanine; acceptor substrate varied, 50 mM pyruvate as donor, 2.4 mM ThDP, 9 mM MgCl2, 50 mM Tris-HCl pH 7.0, 21 °C; error is SEM
Excerpt: initial-rate kinetics by RP-HPLC, Michaelis-Menten fit on E. coli transketolase (TK), 6M variant scaffold

T1 sequence (P27302 whole entry H100L/H192P/A282P/I365L/D469T/G506A/R520Q, form open): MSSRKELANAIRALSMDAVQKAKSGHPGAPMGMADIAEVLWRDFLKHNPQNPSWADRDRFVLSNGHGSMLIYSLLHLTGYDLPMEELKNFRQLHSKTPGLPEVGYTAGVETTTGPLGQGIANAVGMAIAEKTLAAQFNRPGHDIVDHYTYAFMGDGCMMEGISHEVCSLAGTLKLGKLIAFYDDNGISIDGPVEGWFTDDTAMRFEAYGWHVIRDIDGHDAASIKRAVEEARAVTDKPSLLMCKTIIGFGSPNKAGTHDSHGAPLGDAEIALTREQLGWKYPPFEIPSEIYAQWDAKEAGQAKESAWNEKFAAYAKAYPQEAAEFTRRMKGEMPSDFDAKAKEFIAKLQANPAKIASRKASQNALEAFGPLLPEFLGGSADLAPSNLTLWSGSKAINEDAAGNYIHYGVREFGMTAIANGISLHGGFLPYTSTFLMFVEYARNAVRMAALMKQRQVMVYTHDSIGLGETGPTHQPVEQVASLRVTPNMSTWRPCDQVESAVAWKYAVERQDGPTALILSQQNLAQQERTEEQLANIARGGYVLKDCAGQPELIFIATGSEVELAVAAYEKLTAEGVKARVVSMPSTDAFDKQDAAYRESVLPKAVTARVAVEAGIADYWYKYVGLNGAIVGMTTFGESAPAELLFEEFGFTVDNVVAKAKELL

Km: 95 mM
Structure (SMILES): O=Cc1cccc(C(=O)O)c1 [3-FBA, 3-formylbenzoic acid]

Reference: paper PMC10787763, “Two-substrate enzyme engineering using small libraries that combine the substrate preferences from two different variant lineages” (Scientific Reports, 2024)
